IC75 data for nine compounds are collected here from patent publication US5162335A, “Di- and tetrahydroisoquinoline derivatives” (Duphar International Research B.V., priority 1986, dated 1992).

This assay has as its system human cell lines: breast MCF7 and HTB26, colon WIDR and HTB38, lung HTB53, melanoma HTB66, and uterus HTB114. Put plainly: Clonogenic assay with human cell lines (test 2). As to conditions: treatment approximately three times the cell cycle, more particularly the D-enantiomers, read-out: ID75 in the clonogenic assay (test 2). In kind it is cell-based. The protocol: 2. CLONOGENIC ASSAY WITH HUMAN CELL LINES
The following human cell lines are used: breast MCF7 and HTB26, colon WIDR and HTB38, lung HTB53, melanoma HTB66, and uterus HTB114.
As comparative substances are used cisplatinum, 5-fluorouracil, daunomycine, bleomycine and adriamycine.
During providing the cells or after a pre-incubationperiod of one night, the compound to be tested is added as a solution or suspension in 0.5% CMC/saline solution in a dose range with a maximum concentration of 15 μg/ml.
The duration of the treatment is approximately three times the cell cycle. The cells are then fixed, coloured and evaluated for the presence of the colonies. The formation of colonies is expressed in the number of colonies which is present on the treated dishes as a perecentage of the number of colonies which is present on control dishes.
Consider `COc1cc([C@H]2c3ccc4ccccc4c3C[C@H]3COC(=O)N32)cc(OC)c1OC` (relative stereo) [Example 81], for which the IC75 is below 1 µg/mL.
As for `COc1cc([C@@H]2c3cc4c(cc3C[C@@H]3CN(C)[S+]([O-])N32)OCO4)cc(OC)c1OC` (stereo partly drawn) [Example 70], the figure is below 1 µg/mL.
As for `COc1cc([C@H]2N[C@@H](CO)Cc3cc4c(cc32)OCCO4)cc(OC)c1OC` [Example 20], the figure is below 1 µg/mL.
Regarding `COc1cc([C@@H]2c3cc4c(cc3C[C@@H]3COS(=O)N32)OCO4)cc(OC)c1OC` (stereo partly drawn) [Example 55], the IC75 was below 1 µg/mL.
Take `COc1cc([C@@H]2c3cc4c(cc3C[C@@H]3COC(=O)N32)OCCO4)cc(OC)c1OC` [Example 79]: the IC75 is below 1 µg/mL.
Consider `COc1cc([C@H]2N[C@@H](C(N)=O)Cc3cc4c(cc32)OCCO4)cc(OC)c1OC` [Example 110], for which the IC75 was below 1 µg/mL.
With `COc1cc([C@H]2N[C@@H](CO)Cc3c2ccc2ccccc32)cc(OC)c1OC` (relative stereo) [Example 23], the IC75 was below 1 µg/mL.
As for `COc1cc([C@H]2c3c(ccc4ccccc34)C[C@H]3COC(=O)N32)cc(OC)c1OC` (relative stereo) [Example 82], the figure is below 1 µg/mL.
As for `COc1cc(OC)c([C@H]2c3cc4c(cc3C[C@H]3COC(=O)N32)OCCO4)cc1OC` [Example 80], the IC75 is below 1 µg/mL.
